The values below come from patent US8697694B2, “Substituted pyridine and pyrimidine derivatives and their use in treating viral infections” (priority 2008, dated 2014).

A value given as a limit tells only on which side of the number the result lay.

The first assay relates to HCV replicon cells. The assay is described as follows: Cell-based HCV replicon assay (replicon RNA level by real time PCR, Taqman). The following applies: Hepatitis C virus, 72 h, HCV replicon cells, harvested day 3, replicon RNA by real time PCR; given as number; read-out: EC90 (μM) range. The method, boiled down: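 HCV replicon cells treated 3 days with 10 serial 2-fold compound dilutions (top 25 μM to 1 μM; 0.5% DMSO, 10% FBS). Replicon RNA quantified by multiplex Taqman RT-PCR (NS5B amplicon, GAPDH control); EC50 and EC90 = concentrations giving ΔCT of 1 and 3.2 over baseline.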
(In general: In antiviral work, replicon cells carry a viral genome segment that copies itself.)
As for `CCOc1cc2cc(-c3c(C)nc(NC)nc3N[C@@H]3C[C@H](CO)[C@@H](O)[C@H]3O)oc2c(C)n1` [Example 28], the EC90 (in general, the concentration needed for an effect of 90%) was 0.45 µM.

The same assay, now with this note: Hepatitis C virus, 72 h, HCV replicon cells, harvested day 3, replicon RNA by real time PCR; reported as range class; read-out: EC90 (μM) range.
As for `CO[C@@H](C)CNc1nc(Cl)c(-c2nc3ccccc3s2)c(N[C@@H]2C[C@H](CO)[C@@H](O)[C@H]2O)n1` [Example 228], the EC90 is under 0.5 µM.
`Nc1nc(Cl)c(-c2cc3c(F)cncc3o2)c(N[C@@H]2C[C@H](CO)[C@@H](O)[C@H]2O)n1` [Example 303]: the EC90 is 0.5 to 5 µM.
On the same count and under the same terms, the figure for `Nc1nc(Cl)c(-c2ccc(C=O)o2)c(N[C@@H]2C[C@H](CO)[C@@H](O)[C@H]2O)n1` [Example 156] is over 5 µM.
As for `Cc1cc2cc(-c3c(Cl)nc(N)nc3N[C@@H]3C[C@H](CO)[C@@H](O)[C@H]3O)oc2c(C)n1` [Example 401], the EC90 was under 0.5 µM.
Turning to `CCc1cc2cc(-c3c(Cl)nc(N)nc3N[C@@H]3C[C@H](CO)[C@@H](O)[C@H]3O)oc2c(CC)n1` [Example 407], the EC90 was under 0.5 µM.
Consider `COCCN(C)c1nc(Cl)c(-c2nc3ccccc3s2)c(N[C@@H]2C[C@H](CO)[C@@H](O)[C@H]2O)n1` [Example 202], for which the EC90 was in the range of 0.5 to 5 µM.

Still in this assay, the particulars now being: Hepatitis C virus, 72 h, HCV replicon cells, harvested on day 3, replicon RNA by real time PCR; calculated EC90 reported as range class; read-out: EC90 (μM) range.
Take `Cc1ccccc1CNc1nc(C)c(-c2nc3ccccc3s2)c(N[C@@H]2C[C@H](CO)[C@@H](O)[C@H]2O)n1` [Example 488]: the EC90 is under 0.5 µM.
For the compound `Cc1nc(NCC2CC2)nc(N[C@@H]2C[C@H](CO)[C@@H](O)[C@H]2O)c1-c1nc2ccccc2s1` [Example 505], the EC90 is under 0.5 µM.
On the same count and under the same terms, the figure for `CCC(C)(C)Nc1nc(C)c(-c2nc3ccccc3s2)c(N[C@@H]2C[C@H](CO)[C@@H](O)[C@H]2O)n1` [Example 513] is under 0.5 µM.
Regarding `CCc1cc2cc(-c3c(C)nc(NCc4nccs4)nc3N[C@@H]3C[C@H](CO)[C@@H](O)[C@H]3O)oc2cn1` [Example 342], the EC90 was under 0.5 µM.
Same read-out and setting: the figure for `Cc1nc(S(C)(=O)=O)nc(N[C@@H]2C[C@H](CO)[C@@H](O)[C@H]2O)c1-c1nc2ccccc2s1` [Example 324] is over 5 µM.
The same measure, in the same setting: the value for `Cc1csc(CNc2nc(C)c(-c3nc4ccccc4s3)c(N[C@@H]3C[C@H](CO)[C@H]4OC(C)(C)O[C@H]43)n2)c1` [Example 477] was under 0.5 µM.

Staying with this assay, now noted: Hepatitis C virus, 72 h, HCV replicon cells, replicon RNA level by real time PCR (Taqman), harvested on day 3; calculated EC90 reported as range class; read-out: EC90 (μM) range.
With `Cc1nc(NCC(C)(C)C)nc(N[C@@H]2C[C@H](CO)[C@H]3OC(C)(C)O[C@H]32)c1-c1cc2cc(C(C)(C)C)ncc2o1` [Example 1103], the EC90 was over 5 µM.
For `Cc1nc(NC2(c3ccccc3)CC2)nc(N[C@@H]2C[C@H](CO)[C@@H](O)[C@H]2O)c1-c1nc2ccccc2s1` [Example 1232], the EC90 is 0.5 to 5 µM.
Consider `Cc1nc(NCC(C)(C)F)nc(N[C@@H]2C[C@H](CO)[C@@H](O)[C@H]2O)c1-c1nc2ccccc2s1` [Example 1243], for which the EC90 is 0.5 to 5 µM.
As for `COc1ccc(Nc2nc(C)c(-c3nc4ccccc4s3)c(N[C@@H]3C[C@H](CO)[C@@H](O)[C@H]3O)n2)cc1` [Example 1221], the EC90 is 0.5 to 5 µM.
Turning to `COc1ccccc1CNc1nc(C)c(-c2nc3ccccc3s2)c(N[C@@H]2C[C@H](CO)[C@@H](O)[C@H]2O)n1` [Example 1207], the EC90 was 0.5 to 5 µM.

Still in this assay, the particulars now being: Hepatitis C virus, 72 h, HCV replicon cells, replicon RNA level by real time PCR, harvested day 3; read-out: EC90 (μM) range.
With `COc1ccc(CCNc2nc(C)c(-c3nc4cnccc4s3)c(N[C@@H]3C[C@H](CO)[C@@H](O)[C@H]3O)n2)cc1Cl` [Example 1913], the EC90 is 0.5 to 5 µM.
As for `Cc1ccc([C@@H](C)Nc2nc(C)c(-c3nc4cnccc4s3)c(N[C@@H]3C[C@H](CO)[C@@H](O)[C@@]3(C)O)n2)cc1` [Example 1708], the EC90 was under 0.5 µM.
In the case of `Cc1nc(N[C@H](C)c2ccc(OC(F)(F)F)cc2)nc(N[C@@H]2C[C@H](C(C)O)[C@@H](O)[C@H]2O)c1-c1nc2cnccc2s1` (some centres unmarked) [Example 1649], the EC90 is under 0.5 µM.
For `Cc1ccc([C@@H](C)Nc2nc(C)c(-c3nc4c(CC(C)C)nccc4s3)c(N[C@@H]3C[C@H](CO)[C@@H](O)[C@H]3O)n2)cc1` [Example 1372], the EC90 was under 0.5 µM.
As for `Cc1nc(NCC2CC2)nc(N[C@@H]2C[C@H](C(C)O)[C@@H](O)[C@H]2O)c1-c1nc2ccccc2s1` (single isomer, unassigned) [Example 1644], the EC90 was under 0.5 µM.
